Assay results: PMC9234961 (Journal of Medicinal Chemistry, 2022)
Where two headings read alike, the source gives them in different places.

How the values were obtained:
[1] = molecular target: kinases (468) (Homo sapiens, UniProt O60285); conditions: ARK5 (NUAK1); 1000 nM
[2] = molecular target: kinases (468) (Homo sapiens, UniProt P27361); conditions: ERK1 (MAPK3); 1000 nM
[3] = molecular target: kinases (468) (Homo sapiens, UniProt Q59H18); conditions: kinase TNNI3K (Entrez TNNI3K); compound concentration 1000 nM
kinases (468) (Homo sapiens, UniProt Q59H18), sequence (Q59H18 whole entry): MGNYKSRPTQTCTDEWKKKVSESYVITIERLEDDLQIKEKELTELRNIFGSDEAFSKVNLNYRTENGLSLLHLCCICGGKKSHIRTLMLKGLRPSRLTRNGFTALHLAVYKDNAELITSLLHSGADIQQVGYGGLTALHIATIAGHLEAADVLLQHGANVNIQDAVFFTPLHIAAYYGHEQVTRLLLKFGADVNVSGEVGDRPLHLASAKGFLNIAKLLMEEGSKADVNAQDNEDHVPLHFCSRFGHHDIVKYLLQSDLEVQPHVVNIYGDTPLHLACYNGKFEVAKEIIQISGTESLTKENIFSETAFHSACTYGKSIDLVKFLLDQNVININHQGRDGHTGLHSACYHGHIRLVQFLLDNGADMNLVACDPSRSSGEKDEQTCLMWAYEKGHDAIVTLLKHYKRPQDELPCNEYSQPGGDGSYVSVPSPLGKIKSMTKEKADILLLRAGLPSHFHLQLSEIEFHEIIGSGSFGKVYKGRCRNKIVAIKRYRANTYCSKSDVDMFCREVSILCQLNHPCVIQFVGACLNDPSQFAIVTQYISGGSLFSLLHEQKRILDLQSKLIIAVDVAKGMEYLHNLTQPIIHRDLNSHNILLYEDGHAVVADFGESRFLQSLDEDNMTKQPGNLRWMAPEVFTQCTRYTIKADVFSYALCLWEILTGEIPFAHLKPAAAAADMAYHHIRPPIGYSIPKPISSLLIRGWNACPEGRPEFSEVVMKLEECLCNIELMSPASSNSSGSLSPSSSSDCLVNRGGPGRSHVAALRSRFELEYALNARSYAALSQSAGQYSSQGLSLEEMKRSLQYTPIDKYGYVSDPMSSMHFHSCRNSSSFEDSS

[4] = molecular target: kinases (468) (Homo sapiens, UniProt P00519, F317L); conditions: 1000 nM
[5] = molecular target: kinases (468) (Homo sapiens, UniProt P31749); conditions: AKT1; 1000 nM
[6] = molecular target: kinases (468) (Homo sapiens, UniProt P45985); conditions: MEK4 (MAP2K4); 1000 nM
[7] = molecular target: kinases (468) (Homo sapiens, UniProt Q8TBX8); conditions: PIP5K2C (PIP4K2C); 1000 nM
[8] = molecular target: kinases (468) (Homo sapiens, UniProt P07333); conditions: 1000 nM
kinases (468) (Homo sapiens, UniProt P07333), sequence (P07333 20-972): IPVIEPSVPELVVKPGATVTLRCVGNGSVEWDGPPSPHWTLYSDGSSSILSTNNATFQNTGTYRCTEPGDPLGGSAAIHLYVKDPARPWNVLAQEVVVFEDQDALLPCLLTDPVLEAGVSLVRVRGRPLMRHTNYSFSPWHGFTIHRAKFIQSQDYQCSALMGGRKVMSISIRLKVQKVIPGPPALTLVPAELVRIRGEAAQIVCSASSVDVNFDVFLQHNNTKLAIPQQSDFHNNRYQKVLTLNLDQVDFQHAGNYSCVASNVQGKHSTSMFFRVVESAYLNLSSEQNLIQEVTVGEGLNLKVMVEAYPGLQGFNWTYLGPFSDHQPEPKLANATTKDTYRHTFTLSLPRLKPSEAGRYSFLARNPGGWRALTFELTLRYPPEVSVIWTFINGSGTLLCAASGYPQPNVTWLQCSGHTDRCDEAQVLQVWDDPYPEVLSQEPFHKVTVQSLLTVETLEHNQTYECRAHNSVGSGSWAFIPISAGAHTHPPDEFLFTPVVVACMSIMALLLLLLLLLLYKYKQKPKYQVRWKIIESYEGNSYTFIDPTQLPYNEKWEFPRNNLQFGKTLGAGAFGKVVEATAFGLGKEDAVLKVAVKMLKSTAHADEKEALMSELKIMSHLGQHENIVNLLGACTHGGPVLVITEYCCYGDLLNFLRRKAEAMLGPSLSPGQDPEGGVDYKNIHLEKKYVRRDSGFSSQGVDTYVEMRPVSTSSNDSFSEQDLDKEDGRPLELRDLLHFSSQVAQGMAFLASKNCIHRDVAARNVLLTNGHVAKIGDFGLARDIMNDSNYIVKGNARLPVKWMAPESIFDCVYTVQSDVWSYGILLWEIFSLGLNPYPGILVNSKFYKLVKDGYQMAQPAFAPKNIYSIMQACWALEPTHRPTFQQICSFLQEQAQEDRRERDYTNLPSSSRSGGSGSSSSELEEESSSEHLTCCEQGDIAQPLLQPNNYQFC

[9] = molecular target: kinases (468) (Homo sapiens, UniProt O14578); conditions: CIT; 1000 nM
[10] = molecular target: kinases (468) (Homo sapiens, UniProt Q13554); conditions: CAMK2B; 1000 nM
[11] = molecular target: kinases (468) (Homo sapiens, UniProt P49841); conditions: GSK3B; 1000 nM
[12] = molecular target: kinases (468) (Homo sapiens, UniProt Q9BX84); conditions: kinase TRPM6 (Entrez TRPM6); compound concentration 1000 nM
[13] = molecular target: kinases (468) (Homo sapiens, UniProt Q9Y616); conditions: IRAK3; 1000 nM
[14] = molecular target: kinases (468) (Homo sapiens, UniProt O94921); conditions: PFTK1 (CDK14); 1000 nM
[15] = molecular target: kinases (468) (Homo sapiens, UniProt P36897); conditions: kinase TGFBR1 (Entrez TGFBR1); compound concentration 1000 nM
[16] = molecular target: kinases (468) (Homo sapiens, UniProt P42336); conditions: PIK3CA; 1000 nM
[17] = molecular target: kinases (468) (Homo sapiens, UniProt P07332); conditions: FES; 1000 nM
kinases (468) (Homo sapiens, UniProt P07332), sequence (P07332 whole entry): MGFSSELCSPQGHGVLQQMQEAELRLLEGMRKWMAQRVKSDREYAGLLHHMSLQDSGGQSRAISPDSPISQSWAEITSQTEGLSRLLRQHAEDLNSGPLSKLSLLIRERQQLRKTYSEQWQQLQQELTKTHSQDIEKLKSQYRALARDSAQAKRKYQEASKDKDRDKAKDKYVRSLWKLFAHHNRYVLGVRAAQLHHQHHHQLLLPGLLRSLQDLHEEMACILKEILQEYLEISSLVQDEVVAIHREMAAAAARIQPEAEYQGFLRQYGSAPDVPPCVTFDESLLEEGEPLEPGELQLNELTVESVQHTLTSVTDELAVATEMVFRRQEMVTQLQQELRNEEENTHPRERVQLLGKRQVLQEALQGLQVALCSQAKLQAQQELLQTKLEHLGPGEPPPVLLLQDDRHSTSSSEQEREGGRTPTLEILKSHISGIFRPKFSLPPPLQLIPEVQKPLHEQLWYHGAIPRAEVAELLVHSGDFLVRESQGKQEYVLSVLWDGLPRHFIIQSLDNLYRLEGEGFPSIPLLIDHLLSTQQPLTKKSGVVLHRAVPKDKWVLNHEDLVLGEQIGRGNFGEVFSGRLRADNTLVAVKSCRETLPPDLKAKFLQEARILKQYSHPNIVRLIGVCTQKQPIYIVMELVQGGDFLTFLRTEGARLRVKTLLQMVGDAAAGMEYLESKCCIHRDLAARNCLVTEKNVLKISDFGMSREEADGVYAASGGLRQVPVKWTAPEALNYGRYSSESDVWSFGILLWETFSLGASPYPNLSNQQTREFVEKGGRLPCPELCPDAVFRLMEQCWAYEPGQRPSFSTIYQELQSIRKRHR

[18] = molecular target: kinases (468) (Homo sapiens, UniProt Q00536); conditions: PCTK1 (CDK16); 1000 nM
[19] = molecular target: kinases (468) (Homo sapiens, UniProt P00519, H396P); conditions: 1000 nM
[20] = molecular target: kinases (468) (Homo sapiens, UniProt O75914); conditions: PAK3; 1000 nM
kinases (468) (Homo sapiens, UniProt O75914), sequence (O75914 whole entry): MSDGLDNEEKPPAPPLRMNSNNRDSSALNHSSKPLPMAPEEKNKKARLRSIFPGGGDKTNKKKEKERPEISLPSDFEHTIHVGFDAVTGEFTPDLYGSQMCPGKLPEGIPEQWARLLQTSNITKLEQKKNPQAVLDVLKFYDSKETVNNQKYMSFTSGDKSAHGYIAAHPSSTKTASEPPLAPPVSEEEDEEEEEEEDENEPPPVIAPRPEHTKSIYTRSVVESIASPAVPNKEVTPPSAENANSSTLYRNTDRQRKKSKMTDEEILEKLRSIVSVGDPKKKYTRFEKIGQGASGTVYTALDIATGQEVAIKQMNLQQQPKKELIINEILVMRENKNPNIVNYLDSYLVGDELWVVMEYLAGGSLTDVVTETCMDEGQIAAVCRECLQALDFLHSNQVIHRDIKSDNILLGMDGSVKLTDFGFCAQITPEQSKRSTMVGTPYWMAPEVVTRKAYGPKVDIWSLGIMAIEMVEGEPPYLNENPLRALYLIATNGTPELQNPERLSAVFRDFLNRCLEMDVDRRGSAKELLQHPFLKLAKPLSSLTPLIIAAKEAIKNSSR

[21] = molecular target: kinases (468) (Homo sapiens, UniProt Q13163); conditions: MEK5 (MAP2K5); 1000 nM
[22] = molecular target: kinases (468) (Homo sapiens, UniProt O00238); conditions: BMPR1B; 1000 nM
[23] = molecular target: kinases (468) (Homo sapiens, UniProt Q8IYT8); conditions: kinase ULK2 (Entrez ULK2); compound concentration 1000 nM
[24] = molecular target: kinases (468) (Homo sapiens, UniProt Q9Y6R4); conditions: MAP3K4; 1000 nM
[25] = molecular target: kinases (468) (Homo sapiens, UniProt Q8TD08); conditions: ERK8 (MAPK15); 1000 nM
[26] = molecular target: kinases (468) (Homo sapiens, UniProt Q9UM73, L1196M); conditions: ALK(L1196M); 1000 nM
[27] = molecular target: kinases (468) (Homo sapiens, UniProt Q14004); conditions: CDC2L5 (CDK13); 1000 nM
[28] = molecular target: kinases (468) (Homo sapiens, UniProt P51812); conditions: compound concentration 1000 nM
kinases (468) (Homo sapiens, UniProt P51812), sequence (P51812 whole entry): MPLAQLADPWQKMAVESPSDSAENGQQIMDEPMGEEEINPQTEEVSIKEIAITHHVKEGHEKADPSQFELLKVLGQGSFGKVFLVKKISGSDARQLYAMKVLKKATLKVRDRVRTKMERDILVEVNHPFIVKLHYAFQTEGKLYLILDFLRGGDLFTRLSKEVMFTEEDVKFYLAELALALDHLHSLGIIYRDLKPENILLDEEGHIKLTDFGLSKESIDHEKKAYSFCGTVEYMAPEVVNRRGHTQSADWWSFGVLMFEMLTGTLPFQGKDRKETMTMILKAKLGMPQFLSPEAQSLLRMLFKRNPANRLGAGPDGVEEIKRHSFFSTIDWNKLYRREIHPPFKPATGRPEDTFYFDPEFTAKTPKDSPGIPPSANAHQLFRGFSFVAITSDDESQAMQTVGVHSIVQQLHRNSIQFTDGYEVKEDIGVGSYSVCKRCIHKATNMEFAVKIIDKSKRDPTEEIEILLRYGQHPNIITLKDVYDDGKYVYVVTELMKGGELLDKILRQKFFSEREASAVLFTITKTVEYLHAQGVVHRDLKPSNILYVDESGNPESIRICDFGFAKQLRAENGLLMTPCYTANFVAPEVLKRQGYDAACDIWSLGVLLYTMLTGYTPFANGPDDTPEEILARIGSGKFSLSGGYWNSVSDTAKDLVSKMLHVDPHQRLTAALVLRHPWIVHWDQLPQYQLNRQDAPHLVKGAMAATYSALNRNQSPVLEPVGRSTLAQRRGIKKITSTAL

[29] = molecular target: kinases (468) (Homo sapiens, UniProt Q96PY6); conditions: NEK1; 1000 nM
[30] = molecular target: kinases (468) (Homo sapiens, UniProt Q12866); conditions: MERTK; 1000 nM
[31] = molecular target: kinases (468) (Homo sapiens, UniProt P00519, T315I); conditions: 1000 nM
[32] = molecular target: kinases (468) (Homo sapiens, UniProt P78368); conditions: CSNK1G2; 1000 nM
kinases (468) (Homo sapiens, UniProt P78368), sequence (P78368 whole entry): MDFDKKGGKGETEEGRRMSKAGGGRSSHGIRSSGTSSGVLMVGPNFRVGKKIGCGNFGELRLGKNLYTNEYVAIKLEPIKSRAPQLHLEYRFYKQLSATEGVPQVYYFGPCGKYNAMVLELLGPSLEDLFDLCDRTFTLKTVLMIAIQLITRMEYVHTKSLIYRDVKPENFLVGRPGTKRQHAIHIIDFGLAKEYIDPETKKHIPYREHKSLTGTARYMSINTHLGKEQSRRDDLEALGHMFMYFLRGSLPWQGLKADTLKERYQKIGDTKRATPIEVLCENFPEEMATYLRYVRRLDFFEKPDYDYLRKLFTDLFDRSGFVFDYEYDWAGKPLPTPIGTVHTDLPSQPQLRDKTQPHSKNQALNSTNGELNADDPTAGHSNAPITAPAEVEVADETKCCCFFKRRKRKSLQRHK

[33] = molecular target: kinases (468) (Homo sapiens, UniProt P57058); conditions: HUNK; 1000 nM

kinases (468) (Homo sapiens, UniProt P27361), sequence (P27361 whole entry): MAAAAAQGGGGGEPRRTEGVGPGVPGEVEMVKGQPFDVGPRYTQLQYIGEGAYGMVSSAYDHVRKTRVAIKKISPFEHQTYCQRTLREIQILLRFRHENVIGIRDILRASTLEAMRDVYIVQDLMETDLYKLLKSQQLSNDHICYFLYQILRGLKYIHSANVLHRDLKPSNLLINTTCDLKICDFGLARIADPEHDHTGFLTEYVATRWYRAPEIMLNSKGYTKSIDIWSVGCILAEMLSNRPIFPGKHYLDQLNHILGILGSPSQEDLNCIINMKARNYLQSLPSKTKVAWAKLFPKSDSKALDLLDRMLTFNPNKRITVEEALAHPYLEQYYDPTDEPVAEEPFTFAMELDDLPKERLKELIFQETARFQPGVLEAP

SMILES: C[C@H]1C[C@@H](O)CN(c2ncc(Cl)c(Nc3ccc4c(c3)c3c(c(=O)n4C)OCC(F)(F)[C@H](C4CC4)N3)n2)C1 [CCT373566_9A]
- Percent Control [1]: 98%
- Percent Control [2]: 98%
- Percent Control [3]: 100%
- Percent Control ([4]; ABL1(F317L)-nonphosphorylated): 100%
- Percent Control ([4]; ABL1(F317L)-phosphorylated): 93%
- Percent Control [5]: 100%
- Percent Control [6]: 90%
- Percent Control [7]: 82%
- Percent Control ([8]; CSF1R-autoinhibited): 77%
- Percent Control ([8]; CSF1R): 100%
- Percent Control [9]: 99%
- Percent Control [10]: 76%
- Percent Control [11]: 94%
- Percent Control [12]: 95%
- Percent Control [13]: 100%
- Percent Control [14]: 95%
- Percent Control [15]: 89%
- Percent Control [16]: 100%
- Percent Control [17]: 100%
- Percent Control [18]: 100%
- Percent Control ([19]; ABL1(H396P)-nonphosphorylated): 83%
- Percent Control ([19]; ABL1(H396P)-phosphorylated): 94%
- Percent Control [20]: 99%
- Percent Control [21]: 100%
- Percent Control [22]: 97%
- Percent Control [23]: 100%
- Percent Control [24]: 100%
- Percent Control [25]: 95%
- Percent Control [26]: 97%
- Percent Control [27]: 99%
- Percent Control ([28]; kinase RSK2(Kin.Dom.1-N-terminal) (Entrez RPS6KA3)): 100%
- Percent Control ([28]; kinase RSK2(Kin.Dom.2-C-terminal) (Entrez RPS6KA3)): 100%
- Percent Control [29]: 98%
- Percent Control [30]: 96%
- Percent Control ([31]; ABL1(T315I)-nonphosphorylated): 89%
- Percent Control ([31]; ABL1(T315I)-phosphorylated): 88%
- Percent Control [32]: 99%
- Percent Control [33]: 100%
